Results on 17 compounds are retold here after patent US20250215030A1, “STAT MODULATORS AND USES THEREOF” (Recludix Pharma, Inc., priority 2022, published 2025).

The experiment has as its target T1, pSTAT3 (pY705-STAT3) (Homo sapiens, UniProt P40763).
T1 construct: host or cells: cryopreserved PBMC
Nature of the experiment: MSD-pSTAT-PBMC Assay (pSTAT3, IL-6 stimulated). The experiment is classed as cell-based. In outline:
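Phospho-STAT levels captured on anti-STAT3 or anti-STAT6 plates and detected with anti-pY705 or anti-pY641 antibodies (MSD read-out). Cryopreserved human PBMCs received compound for 3 h before a 10 min pulse of IL-6 (10 ng/mL, STAT3) or IL-4 (1 ng/mL, STAT6). IC50 fitted after unstimulated-background subtraction and DMSO normalization.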

The mark [1] stands for this setting: PBMC, compound 3 hrs, then 10 ng/mL IL-6 for 10 min, MSD pY705-STAT3, read-out: pSTAT3.

The structures appear in SMILES notation. Read-outs that look alike come from different tables or passages of the source.

T1 sequence (P40763 whole entry): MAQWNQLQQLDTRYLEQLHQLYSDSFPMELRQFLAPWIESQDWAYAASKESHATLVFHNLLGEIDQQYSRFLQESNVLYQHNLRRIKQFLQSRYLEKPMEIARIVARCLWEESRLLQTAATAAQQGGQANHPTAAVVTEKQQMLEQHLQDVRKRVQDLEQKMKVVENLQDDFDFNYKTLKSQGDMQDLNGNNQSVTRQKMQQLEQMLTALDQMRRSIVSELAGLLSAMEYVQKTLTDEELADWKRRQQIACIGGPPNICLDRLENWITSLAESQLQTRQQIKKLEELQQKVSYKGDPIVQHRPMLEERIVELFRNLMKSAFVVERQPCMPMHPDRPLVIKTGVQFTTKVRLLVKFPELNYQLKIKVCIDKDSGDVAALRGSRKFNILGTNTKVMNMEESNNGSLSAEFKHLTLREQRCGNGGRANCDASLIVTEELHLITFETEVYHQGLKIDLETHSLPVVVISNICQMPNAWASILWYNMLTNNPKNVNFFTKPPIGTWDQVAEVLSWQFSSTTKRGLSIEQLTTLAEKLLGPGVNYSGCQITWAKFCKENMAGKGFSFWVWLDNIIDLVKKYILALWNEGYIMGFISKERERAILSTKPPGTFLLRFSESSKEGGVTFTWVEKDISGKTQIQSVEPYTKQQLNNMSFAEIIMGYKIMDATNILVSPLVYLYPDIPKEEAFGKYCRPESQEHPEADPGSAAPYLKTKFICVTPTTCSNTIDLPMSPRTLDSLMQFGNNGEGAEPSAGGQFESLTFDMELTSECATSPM

As for `Cc1ccncc1C1CN(C(=O)[C@@H]2CC[C@@H]3C[C@H]4C[C@H]4C[C@H](NC(=O)c4cc5cc(C(F)P(=O)(N[C@@H](C)C(=O)OC(C)C)Oc6ccccc6)ccc5s4)C(=O)N32)C1` (stereo partly drawn) [Compound 281, isopropyl ((fluoro(2-(((3S,6S,7aS,8aR,9aR)-3-(3-(4-methylpyridin-3-yl)azetidine-1-carbonyl)-5-oxodecahydro-1H-cyclopropa[d]pyrrolo[1,2-a]azocin-6-yl)carbamoyl)benzo[b]thiophen-5-yl)methyl)(phenoxy)phosphoryl)-L-alaninate], the IC50 was less than 100 nM.
`CCCOC(=O)[C@H](CC)NP(=O)(Oc1ccccc1)C(F)c1ccc2sc(C(=O)N[C@H]3C[C@@H]4C[C@@H]4C[C@H]4CC[C@@H](C(=O)N5CC(c6cnccc6C)C5)N4C3=O)cc2c1` (stereo partly drawn) [Compound 283, propyl(2S)-2-(((fluoro(2-(((3S,6S,7aS,8aR,9aR)-3-(3-(4-methylpyridin-3-yl)azetidine-1-carbonyl)-5-oxodecahydro-1H-cyclopropa[d]pyrrolo[1,2-a]azocin-6-yl)carbamoyl)benzo[b]thiophen-5-yl)methyl)(phenoxy)phosphoryl)amino)butanoate] displayed an IC50 of less than 100 nM.
Same read-out and setting: then `CCCOC(=O)[C@H](COC)NP(=O)(Oc1ccccc1)C(F)c1ccc2sc(C(=O)N[C@H]3C[C@@H]4C[C@@H]4C[C@H]4CC[C@@H](C(=O)N5CC(c6cnccc6C)C5)N4C3=O)cc2c1` (stereo partly drawn) [Compound 284, propyl N-((fluoro(2-(((3S,6S,7aS,8aR,9aR)-3-(3-(4-methylpyridin-3-yl)azetidine-1-carbonyl)-5-oxodecahydro-1H-cyclopropa[d]pyrrolo[1,2-a]azocin-6-yl)carbamoyl)benzo[b]thiophen-5-yl)methyl)(phenoxy)phosphoryl)-O-methyl-L-serinate], with less than 100 nM.
For the compound `CCCOC(=O)C(C)(C)NP(=O)(Oc1ccccc1)C(F)c1ccc2sc(C(=O)N[C@H]3C[C@@H]4C[C@@H]4C[C@H]4CC[C@@H](C(=O)N5CC(c6cnccc6C)C5)N4C3=O)cc2c1` (stereo partly drawn) [Compound 285, propyl 2-(((fluoro(2-(((3S,6S,7aS,8aR,9aR)-3-(3-(4-methylpyridin-3-yl)azetidine-1-carbonyl)-5-oxodecahydro-1H-cyclopropa[d]pyrrolo[1,2-a]azocin-6-yl)carbamoyl)benzo[b]thiophen-5-yl)methyl)(phenoxy)phosphoryl)amino)-2-methylpropanoate], the IC50 under setting [1] is less than 100 nM.
`CCCOC(=O)[C@H](C)NP(=O)(OCC(F)(F)F)C(F)c1ccc2sc(C(=O)N[C@H]3C[C@@H]4C[C@@H]4C[C@H]4CC[C@@H](C(=O)N5CC(c6cnccc6C)C5)N4C3=O)cc2c1` (stereo partly drawn) [Compound 287, propyl ((fluoro(2-(((3S,6S,7aS,8aR,9aR)-3-(3-(4-methylpyridin-3-yl)azetidine-1-carbonyl)-5-oxodecahydro-1H-cyclopropa[d]pyrrolo[1,2-a]azocin-6-yl)carbamoyl)benzo[b]thiophen-5-yl)methyl)(2,2,2-trifluoroethoxy)phosphoryl)-L-alaninate]: the IC50 under setting [1] was less than 100 nM.
The same measure, in the same setting: then `CC(C)(C)C(=O)SCCOP(=O)(OCCSC(=O)C(C)(C)C)C(F)c1ccc2sc(C(=O)N[C@H]3C[C@@H]4C[C@@H]4C[C@H]4CC[C@@H](C(=O)N5CC(c6cnccc6F)C5)N4C3=O)cc2c1` (stereo partly drawn) [Compound 306, S,S′-((((fluoro(2-(((3S,6S,7aS,8aR,9aR)-3-(3-(4-fluoropyridin-3-yl)azetidine-1-carbonyl)-5-oxodecahydro-1H-cyclopropa[d]pyrrolo[1,2-a]azocin-6-yl)carbamoyl)benzo[b]thiophen-5-yl)methyl)phosphoryl)bis(oxy))bis(ethane-2,1-diyl))bis(2,2-dimethylpropanethioate)], with less than 100 nM; and `CCCOC(=O)[C@H](C)NP(=O)(Oc1ccccc1)C(F)c1ccc2sc(C(=O)N[C@H]3C[C@@H]4C[C@@H]4C[C@H]4CC[C@@H](C(=O)N5CC(c6cnccc6C)C5)N4C3=O)cc2c1` (stereo partly drawn) [Compound 307, propyl ((fluoro(2-(((3S,6S,7aS,8aR,9aR)-3-(3-(4-methylpyridin-3-yl)azetidine-1-carbonyl)-5-oxodecahydro-1H-cyclopropa[d]pyrrolo[1,2-a]azocin-6-yl)carbamoyl)benzo[b]thiophen-5-yl)methyl)(phenoxy)phosphoryl)-L-alaninate], with less than 100 nM; and `CC(C)(C)C(=O)SCCOP(=O)(OCCSC(=O)C(C)(C)C)C(F)(F)c1ccc2sc(C(=O)N[C@H]3C[C@@H]4C[C@@H]4C[C@H]4CC[C@@H](C(=O)N5CC(c6cnccc6F)C5)N4C3=O)cc2c1` [Compound 308, S,S′-((((difluoro(2-(((3S,6S,7aS,8aR,9aR)-3-(3-(4-fluoropyridin-3-yl)azetidine-1-carbonyl)-5-oxodecahydro-1H-cyclopropa[d]pyrrolo[1,2-a]azocin-6-yl)carbamoyl)benzo[b]thiophen-5-yl)methyl)phosphoryl)bis(oxy))bis(ethane-2,1-diyl))bis(2,2-dimethylpropanethioate)], with less than 100 nM.
On the same count and under the same terms, then `CCCOC(=O)[C@H](C)NP(=O)(Oc1ccccc1)C(F)c1ccc2sc(C(=O)N[C@H]3C[C@@H]4C[C@@H]4C[C@H]4CC[C@@H](C(=O)N5CC(c6nncn6C)C5)N4C3=O)cc2c1` (stereo partly drawn) [Compound 309, propyl ((fluoro(2-(((3S,6S,7aS,8aR,9aR)-3-(3-(4-methyl-4H-1,2,4-triazol-3-yl)azetidine-1-carbonyl)-5-oxodecahydro-1H-cyclopropa[d]pyrrolo[1,2-a]azocin-6-yl)carbamoyl)benzo[b]thiophen-5-yl)methyl)(phenoxy)phosphoryl)-L-alaninate], with greater than 3000 nM.
Consider `CCCOC(=O)[C@H](C)NP(=O)(Oc1ccccc1)C(F)c1ccc2sc(C(=O)N[C@H]3C[C@@H]4C[C@@H]4C[C@H]4CC[C@@H](C(=O)N5CC(N6CCS(=O)(=O)CC6)C5)N4C3=O)cc2c1` (stereo partly drawn) [Compound 310, propyl(((2-(((3S,6S,7aS,8aR,9aR)-3-(3-(1,1-dioxidothiomorpholino)azetidine-1-carbonyl)-5-oxodecahydro-1H-cyclopropa[d]pyrrolo[1,2-a]azocin-6-yl)carbamoyl)benzo[b]thiophen-5-yl)fluoromethyl)(phenoxy)phosphoryl)-L-alaninate], for which the IC50 was greater than 3000 nM.
With `CCCOC(=O)[C@H](C)NP(=O)(Cc1ccc2sc(C(=O)N[C@H]3C[C@@H]4C[C@@H]4C[C@H]4CC[C@@H](C(=O)N5CC(c6cnccc6C)C5)N4C3=O)cc2c1)OCC(F)(F)F` (stereo partly drawn) [Compound 311, propyl(((2-(((3S,6S,7aS,8aR,9aR)-3-(3-(4-methylpyridin-3-yl)azetidine-1-carbonyl)-5-oxodecahydro-1H-cyclopropa[d]pyrrolo[1,2-a]azocin-6-yl)carbamoyl)benzo[b]thiophen-5-yl)methyl)(2,2,2-trifluoroethoxy)phosphoryl)-L-alaninate], under setting [1], the IC50 is less than 100 nM.
For `CC(C)(C)C(=O)SCCOP(=O)(OCCSC(=O)C(C)(C)C)C(F)(F)c1ccc2sc(C(=O)N[C@H]3C[C@@H]4C[C@@H]4C[C@H]4CC[C@@H](C(=O)N5CC(c6ccccn6)C5)N4C3=O)cc2c1` [Compound 314], the IC50 under setting [1] is less than 100 nM.
The same measure, in the same setting: then `CCCOC(=O)[C@H](C)NP(=O)(Oc1ccccc1)C(F)c1ccc2sc(C(=O)N[C@H]3C[C@@H]4C[C@@H]4C[C@H]4CC[C@@H](C(=O)N5CC(c6ncccn6)C5)N4C3=O)cc2c1` (stereo partly drawn) [Compound 315, propyl ((fluoro(2-(((3S,6S,7aS,8aR,9aR)-5-oxo-3-(3-(pyrimidin-2-yl)azetidine-1-carbonyl)decahydro-1H-cyclopropa[d]pyrrolo[1,2-a]azocin-6-yl)carbamoyl)benzo[b]thiophen-5-yl)methyl)(phenoxy)phosphoryl)-L-alaninate], with 100 to 1000 nM; and `CCCOC(=O)[C@H](C)NP(=O)(Oc1ccccc1)C(F)c1ccc2sc(C(=O)N[C@H]3C[C@@H]4C[C@@H]4C[C@H]4CC[C@@H](C(=O)N5CC(c6ccon6)C5)N4C3=O)cc2c1` (stereo partly drawn) [Compound 316, propyl ((fluoro(2-(((3S,6S,7aS,8aR,9aR)-3-(3-(isoxazol-3-yl)azetidine-1-carbonyl)-5-oxodecahydro-1H-cyclopropa[d]pyrrolo[1,2-a]azocin-6-yl)carbamoyl)benzo[b]thiophen-5-yl)methyl)(phenoxy)phosphoryl)-L-alaninate], with less than 100 nM; and `CCCOC(=O)[C@H](C)NP(=O)(Oc1ccccc1)C(F)c1ccc2sc(C(=O)N[C@H]3C[C@H]4C[C@H]4C[C@H]4CC[C@@H](C(=O)N5CC(c6cnccc6OC)C5)N4C3=O)cc2c1` (stereo partly drawn) [Compound 319, propyl ((fluoro(2-(((3S,6S,7aR,8aS,9aR)-3-(3-(4-methoxypyridin-3-yl)azetidine-1-carbonyl)-5-oxodecahydro-1H-cyclopropa[d]pyrrolo[1,2-a]azocin-6-yl)carbamoyl)benzo[b]thiophen-5-yl)methyl)(phenoxy)phosphoryl)-L-alaninate], with less than 100 nM.
Still for that read-out and setting: then `CCCOC(=O)[C@H](C)NP(=O)(Oc1ccccc1)C(F)c1ccc2sc(C(=O)N[C@H]3C[C@H]4C[C@H]4C[C@H]4CC[C@@H](C(=O)N5CC(c6cnccc6C)C5)N4C3=O)cc2c1` (stereo partly drawn) [Compound 321, propyl ((fluoro(2-(((3S,6S,7aR,8aS,9aR)-3-(3-(4-methylpyridin-3-yl)azetidine-1-carbonyl)-5-oxodecahydro-1H-cyclopropa[d]pyrrolo[1,2-a]azocin-6-yl)carbamoyl)benzo[b]thiophen-5-yl)methyl)(phenoxy)phosphoryl)-L-alaninate], with less than 100 nM.
Regarding `CCCOC(=O)[C@H](C)NP(=O)(Oc1ccccc1)C(F)c1ccc2sc(C(=O)N[C@H]3C[C@@H]4C[C@@H]4C[C@H]4CC[C@@H](C(=O)N5CC(c6ncco6)C5)N4C3=O)cc2c1` (stereo partly drawn) [Compound 323, propyl ((fluoro(2-(((3S,6S,7aS,8aR,9aR)-3-(3-(oxazol-2-yl)azetidine-1-carbonyl)-5-oxodecahydro-1H-cyclopropa[d]pyrrolo[1,2-a]azocin-6-yl)carbmaoyl)benzo[b]thiophen-5-yl)methyl)(phenoxy)phosphoryl)-L-alaninate], under setting [1], the IC50 was less than 100 nM.
